Values joined by “and” are separate entries in the source; they are usually repeats but may differ in a detail not shown here. Equal entries are not always repeated.
Conditions: Liquid; for viscosity: Vibrating wire viscometry; for mass density: Vibrating tube method

OCCOCCOCCO [triethylene glycol]
Conditions | mass density | viscosity
343.08 K, 67540 kPa | – | 10.64 mPa·s
343.08 K, 67870 kPa | – | 10.63 mPa·s
343.15 K, 100 kPa | 1083.9 kg/m3 | –
343.15 K, 640 kPa | 1084.2 kg/m3 | –
343.15 K, 1120 kPa | 1084.4 kg/m3 | –
343.15 K, 1600 kPa | 1084.7 kg/m3 | –
343.15 K, 2110 kPa | 1084.9 kg/m3 | –
343.15 K, 3040 kPa | 1085.5 kg/m3 | –
343.15 K, 5040 kPa | 1086.6 kg/m3 | –
343.15 K, 6960 kPa | 1087.5 kg/m3 | –
343.15 K, 9920 kPa | 1089 kg/m3 | –
343.15 K, 14810 kPa | 1091.6 kg/m3 | –
343.15 K, 19680 kPa | 1093.9 kg/m3 | –
343.15 K, 24620 kPa | 1096.4 kg/m3 | –
343.15 K, 29580 kPa | 1098.7 kg/m3 | –
343.15 K, 34460 kPa | 1101 kg/m3 | –
343.15 K, 39370 kPa | 1103.3 kg/m3 | –
343.15 K, 44240 kPa | 1105.4 kg/m3 | –
343.15 K, 49160 kPa | 1107.6 kg/m3 | –
343.15 K, 54020 kPa | 1109.7 kg/m3 | –
343.15 K, 58940 kPa | 1111.7 kg/m3 | –
343.15 K, 63890 kPa | 1113.8 kg/m3 | –
343.15 K, 68680 kPa | 1115.7 kg/m3 | –
353.15 K, 100 kPa | 1076 kg/m3 | –
353.15 K, 650 kPa | 1076.3 kg/m3 | –
353.15 K, 1100 kPa | 1076.5 kg/m3 | –
353.15 K, 1550 kPa | 1076.7 kg/m3 | –
353.15 K, 2100 kPa | 1077.1 kg/m3 | –
353.15 K, 3050 kPa | 1077.6 kg/m3 | –
353.15 K, 5040 kPa | 1078.6 kg/m3 | –
353.15 K, 7010 kPa | 1079.8 kg/m3 | –
353.15 K, 9960 kPa | 1081.3 kg/m3 | –
353.15 K, 14810 kPa | 1084 kg/m3 | –
353.15 K, 19780 kPa | 1086.5 kg/m3 | –
353.15 K, 24610 kPa | 1089 kg/m3 | –
353.15 K, 29560 kPa | 1091.9 kg/m3 | –
353.15 K, 34450 kPa | 1093.8 kg/m3 | –
353.15 K, 39370 kPa | 1096.1 kg/m3 | –
353.15 K, 44270 kPa | 1098.4 kg/m3 | –
353.15 K, 49200 kPa | 1100.6 kg/m3 | –
353.15 K, 54090 kPa | 1102.8 kg/m3 | –
353.15 K, 59010 kPa | 1104.9 kg/m3 | –
353.15 K, 63820 kPa | 1107 kg/m3 | –
353.15 K, 68800 kPa | 1109 kg/m3 | –
362.88 K, 190 kPa | – | 4.247 mPa·s [middle of 7 runs]
362.88 K, 1270 kPa | – | 4.27 mPa·s [middle of 8 runs]
362.88 K, 1990 kPa | – | 4.308 mPa·s and 4.283 mPa·s and 4.311 mPa·s
362.88 K, 2000 kPa | – | 4.292 mPa·s [middle of 5 runs]
362.88 K, 4990 kPa | – | 4.388 mPa·s [middle of 4 runs]
362.88 K, 5000 kPa | – | 4.396 mPa·s and 4.394 mPa·s and 4.386 mPa·s
362.88 K, 10010 kPa | – | 4.54 mPa·s and 4.522 mPa·s and 4.512 mPa·s
362.88 K, 10020 kPa | – | 4.524 mPa·s [middle of 4 runs]
362.88 K, 19820 kPa | – | 4.812 mPa·s
362.88 K, 19830 kPa | – | 4.792 mPa·s and 4.786 mPa·s and 4.794 mPa·s
362.88 K, 19840 kPa | – | 4.789 mPa·s
362.88 K, 29760 kPa | – | 5.092 mPa·s
362.88 K, 29770 kPa | – | 5.089 mPa·s
362.88 K, 29780 kPa | – | 5.088 mPa·s
362.88 K, 29790 kPa | – | 5.109 mPa·s
362.88 K, 39030 kPa | – | 5.381 mPa·s
362.88 K, 39050 kPa | – | 5.39 mPa·s
362.88 K, 39060 kPa | – | 5.382 mPa·s
362.88 K, 39070 kPa | – | 5.395 mPa·s
362.88 K, 39330 kPa | – | 5.395 mPa·s
362.88 K, 50130 kPa | – | 5.747 mPa·s
362.88 K, 50260 kPa | – | 5.754 mPa·s
362.88 K, 50300 kPa | – | 5.756 mPa·s
362.88 K, 50380 kPa | – | 5.739 mPa·s
362.88 K, 50430 kPa | – | 5.763 mPa·s
362.88 K, 67370 kPa | – | 6.356 mPa·s
362.88 K, 67660 kPa | – | 6.331 mPa·s
362.88 K, 67980 kPa | – | 6.382 mPa·s
363.15 K, 100 kPa | 1068.1 kg/m3 and 1068 kg/m3 | –
363.15 K, 660 kPa | 1068.4 kg/m3 | –
363.15 K, 1120 kPa | 1068.7 kg/m3 | –
363.15 K, 1560 kPa | 1068.9 kg/m3 | –
363.15 K, 2130 kPa | 1069.2 kg/m3 | –
363.15 K, 3050 kPa | 1069.8 kg/m3 | –
363.15 K, 5090 kPa | 1070.9 kg/m3 | –
363.15 K, 6990 kPa | 1072 kg/m3 | –
363.15 K, 9980 kPa | 1073.7 kg/m3 | –
363.15 K, 14880 kPa | 1076.4 kg/m3 | –
363.15 K, 19680 kPa | 1079 kg/m3 | –
363.15 K, 24720 kPa | 1081.7 kg/m3 | –
363.15 K, 29630 kPa | 1084.2 kg/m3 | –
363.15 K, 34490 kPa | 1086.6 kg/m3 | –
363.15 K, 39430 kPa | 1089 kg/m3 | –
363.15 K, 44200 kPa | 1091.4 kg/m3 | –
363.15 K, 49240 kPa | 1093.7 kg/m3 | –
363.15 K, 54100 kPa | 1095.9 kg/m3 | –
363.15 K, 59010 kPa | 1098.1 kg/m3 | –
363.15 K, 63880 kPa | 1100.2 kg/m3 | –
363.15 K, 68830 kPa | 1102.3 kg/m3 | –

Source: the NIST ThermoML archive (doi:10.1016/j.fluid.2018.09.026)
